According to patent publication US20250205200A1, “5-METHOXY-N,N-[…][…] THE TREATMENT OF […]” (GH RESEARCH IRELAND LIMITED, priority 2022, published 2025):

Test system: patients with postpartum depression (PPD)
Assay: Clinical trial of inhaled 5-MeO-DMT (individualized dosing regimen) in postpartum depression; one patient, 6 mg then 12 mg
Settings: n=1; for MADRS Concentration Difficulties improvement / MADRS Concentration Difficulties score / MADRS Reduced appetite improvement / MADRS Reduced appetite score / MADRS Suicidal Thoughts improvement / MADRS Suicidal Thoughts score: baseline 0; for MADRS Inability to Feel improvement / MADRS Inability to Feel score / MADRS Lassitude improvement / MADRS Lassitude score: baseline 3; for MADRS Pessimistic Thoughts improvement / MADRS Pessimistic Thoughts score / MADRS Reported sadness improvement / MADRS Reported sadness score: baseline 4
Description: The single-arm, open-label clinical trial will involve 15 adult female patients with clinically diagnosed postpartum depression (PPD).
The second dose (12 mg) will only be administered if: • a. […] The 6 mg dose was safe and well-tolerated according to the investigator, • c. Any psychoactive effects (PsE) of the prior dose have subsided, and • d. Pre-dose vital parameters and forced expiratory volume in one second (FEV1) are in normal range, or if outside of the normal range, are not clinically significant according to the investigator. • 3. Similarly, a third dose (18 mg) will only be administered if: • a. […] The 12 mg dose was safe and well-tolerated according to the investigator, and • c. Any PsE of the prior dose have subsided, and • d. Pre-dose vital parameters and forced expiratory volume in one second (FEV1) are in normal range, or if outside of the normal range, are not clinically significant according to the investigator.
The patients will be assessed for a peak psychedelic experience (based on a patient-scored visual analogue scale, the PE scale), sedation, and other endpoints after dosing.
Follow-up visits are planned for Day 1, and Day 7 after the dosing day.
The following criteria must be met by all patients considered for clinical trial participation: • 1. Is female and in the age range between 18 and 45 years (inclusive) at screening. • 2. Has a body mass index (BMI) in the range of 18.5 and 35 kg/m^2 (inclusive) at screening. • 3. Meets the trial criteria for PPD as assessed by a trial psychiatrist or registered psychologist: • a. Diagnosis of Major Depressive Disorder without psychotic features, confirmed by the Mini-International Neuropsychiatric Interview (MINI), with peri-partum onset that began no earlier than gestation and no later than the first 4 weeks postpartum. • b. Has a Montgomery-Åsberg Depression Rating Scale (MADRS) total score of equal to or greater than 28 at screening and pre-dose on Day 0. • 6. […] Patients must have a negative pregnancy test at screening and on the pre-test day (Day −1). • 5. Is willing to delay start of other antidepressant or anxiety medication until after the end of the trial at Day 7 and agrees to keep any psychotherapy unchanged during the trial.
A potential patient who meets any of the following key exclusion criteria will be excluded from participation in this trial: • 1. Has, based on history, psychiatric assessment, and evaluation of the MINI, a current or prior diagnosis of bipolar disorder, a manic or hypomanic episode, a psychotic disorder, Major Depressive Disorder (MDD) or other mood disorder with psychotic features, obsessive compulsive disorder, post-traumatic stress disorder (PTSD), autism spectrum disorder, borderline personality disorder, schizophrenia, delusional disorder, paranoid personality disorder, schizoaffective disorder, clinically significant intellectual disability, or any other psychiatric comorbidity that renders the patient unsuitable for the trial according to the investigator's judgment. • 2. Has one or more first or second degree relatives with a current or previously diagnosed bipolar disorder, psychotic disorder or other mood disorder (including MDD) with psychotic features. • 3. Is in the judgement of a trial psychiatrist or registered psychologist, at significant risk for suicide based on history, psychiatric assessment, and evaluation of suicidal ideation and suicidal behaviour based on the Columbia-Suicide Severity Rating Scale (C-SSRS). • 4. Has taken anti-depressive medication within 14 days or 5 half-lives (whichever is longer) prior to dosing (exception: within the last 5 weeks in the case of fluoxetine). • 5.

COc1ccc2[nH]cc(CCN(C)C)c2c1 [5-MeO-DMT]
Adverse events (cramping left abdominal pain and headache, Day 0): mild, short-lasting and resolved spontaneously | Criteria for MADRS response (at least 50% improvement) and MADRS remission (total score <=10): fulfilled standard criteria | ECG (3 hours), safety laboratory analyses (7 days), CADSS (3 hours, 1 day, 7 days): unremarkable | Tolerability of IDR (6 mg followed by 12 mg, inhalation): well tolerated | Tolerability of the inhalation procedure: well tolerated with no inhalation-related adverse events | MADRS Concentration Difficulties improvement (2 hr): 0 | MADRS Concentration Difficulties score (2 hr): 0 | MADRS Reduced appetite improvement (2 hr): 0 | MADRS Reduced appetite score (2 hr): 0 | MADRS Suicidal Thoughts improvement (2 hr): 0 | MADRS Suicidal Thoughts score (2 hr): 0 | MADRS Inability to Feel improvement (2 hr): 3 | MADRS Inability to Feel score (2 hr): 0 | MADRS Lassitude improvement (2 hr): 3 | MADRS Lassitude score (2 hr): 0 | MADRS Pessimistic Thoughts improvement (2 hr): 4 | MADRS Pessimistic Thoughts score (2 hr): 0 | MADRS Reported sadness improvement (2 hr): 4 | MADRS Reported sadness score (2 hr): 0 | MADRS Apparent sadness improvement (2 hr, baseline 5): 5 | MADRS Apparent sadness score (2 hr, baseline 5): 0 | MADRS Inner Tension improvement (2 hr, baseline 5): 5 | MADRS Inner Tension score (2 hr, baseline 5): 0 | MADRS Reduced Sleep improvement (2 hr, baseline 5): 0 | MADRS Reduced Sleep score (2 hr, baseline 5): 5 | MADRS Concentration Difficulties improvement (Day 1): 0 | MADRS Concentration Difficulties score (Day 1): 0 | MADRS Reduced appetite improvement (Day 1): 0 | MADRS Reduced appetite score (Day 1): 0 | MADRS Suicidal Thoughts improvement (Day 1): 0 | MADRS Suicidal Thoughts score (Day 1): 0 | BPRS Blunted affect improvement (Day 1, baseline 1): 0 | BPRS Blunted affect score (Day 1, baseline 1): 1 | BPRS Conceptual disorganization improvement (Day 1, baseline 1): 0 | BPRS Conceptual disorganization score (Day 1, baseline 1): 1 | BPRS Disorientation improvement (Day 1, baseline 1): 0 | BPRS Disorientation score (Day 1, baseline 1): 1 | BPRS Grandiosity improvement (Day 1, baseline 1): 0 | BPRS Grandiosity score (Day 1, baseline 1): 1 | BPRS Hallucinatory behaviour improvement (Day 1, baseline 1): 0 | BPRS Hallucinatory behaviour score (Day 1, baseline 1): 1 | BPRS Hostility improvement (Day 1, baseline 1): 0 | BPRS Hostility score (Day 1, baseline 1): 1 | BPRS Mannerisms and Posturing improvement (Day 1, baseline 1): 0 | BPRS Mannerisms and Posturing score (Day 1, baseline 1): 1 | BPRS Motor retardation improvement (Day 1, baseline 1): 0 | BPRS Motor retardation score (Day 1, baseline 1): 1 | BPRS Suspiciousness improvement (Day 1, baseline 1): 0 | BPRS Suspiciousness score (Day 1, baseline 1): 1 | BPRS Uncooperativeness improvement (Day 1, baseline 1): 0 | BPRS Uncooperativeness score (Day 1, baseline 1): 1 | BPRS Unusual Thought Content improvement (Day 1, baseline 1): 0 | BPRS Unusual Thought Content score (Day 1, baseline 1): 1 | BPRS Excitement improvement (Day 1, baseline 2): 1 | BPRS Excitement score (Day 1, baseline 2): 1 | MADRS Inability to Feel improvement (Day 1): 3 | MADRS Inability to Feel score (Day 1): 0 | MADRS Lassitude improvement (Day 1): 3 | MADRS Lassitude score (Day 1): 0 | MADRS Pessimistic Thoughts improvement (Day 1): 4 | MADRS Pessimistic Thoughts score (Day 1): 0 | MADRS Reported sadness improvement (Day 1): 4 | MADRS Reported sadness score (Day 1): 0 | BPRS Emotional withdrawal improvement (Day 1, baseline 5): 4 | BPRS Emotional withdrawal score (Day 1, baseline 5): 1 | MADRS Apparent sadness improvement (Day 1, baseline 5): 5 | MADRS Apparent sadness score (Day 1, baseline 5): 0 | MADRS Inner Tension improvement (Day 1, baseline 5): 5 | MADRS Inner Tension score (Day 1, baseline 5): 0 | MADRS Reduced Sleep improvement (Day 1, baseline 5): 5 | MADRS Reduced Sleep score (Day 1, baseline 5): 0 | BPRS Depressive Mood improvement (Day 1, baseline 6): 5 | BPRS Depressive Mood score (Day 1, baseline 6): 1 | BPRS Guilt feelings improvement (Day 1, baseline 6): 5 | BPRS Guilt feelings score (Day 1, baseline 6): 1 | BPRS Somatic Concern improvement (Day 1, baseline 6): 5 | BPRS Somatic Concern score (Day 1, baseline 6): 1 | BPRS Tension score (Day 1, baseline 6): 1 | BPRS Anxiety improvement (Day 1, baseline 7): 6 | BPRS Anxiety score (Day 1, baseline 7): 1 | BIMF item 2 (I feel rested) score (Day 7, Day 0 score 0): 2 | BIMF item 19 (getting better at taking care of my baby) score (Day 7, Day 0 score 0): 1 | BIMF item 18 (Anxiety or worry often interferes with my mothering ability) score (Day 7, Day 0 score 2): 5 | BIMF item 16 (I worry about how other people judge me (as a mother)) score (Day 7, Day 0 score 3): 5 | BIMF item 13 (taking good care of my physical needs) score (Day 7, Day 0 score 4): 5 | BIMF item 4 (My baby and I understand each other) score (Day 7, Day 0 score 5): 5 | BIMF item 5 (able to relax and enjoy time with my baby) score (Day 7, Day 0 score 5): 6 | BIMF item 9 (getting enough encouragement from other people) score (Day 7, Day 0 score 5): 6 | BIMF item 10 (I trust my own feelings (instincts) when taking care of my baby) score (Day 7, Day 0 score 5): 6 | BIMF item 11 (I take a little time each week to do something for myself) score (Day 7, Day 0 score 5): 6 | BIMF item 15 (My baby and I are getting into a routine) score (Day 7, Day 0 score 5): 6 | BIMF item 17 (able to take care of my baby and my other responsibilities) score (Day 7, Day 0 score 5): 5 | BIMF item 1 (I am a good mother) score (Day 7, Day 0 score 6): 6 | BIMF item 3 (comfortable with the way I've chosen to feed my baby) score (Day 7, Day 0 score 6): 6 | BIMF item 6 (people I can trust to care for my baby when I need a break) score (Day 7, Day 0 score 6): 6 | BIMF item 8 (getting enough adult interaction) score (Day 7, Day 0 score 6): 6 | BIMF item 12 (taking good care of my baby's physical needs) score (Day 7, Day 0 score 6): 6 | BIMF item 14 (good decisions about my baby's health and well being) score (Day 7, Day 0 score 6): 6 | BIMF item 20 (satisfied with the job I am doing as a new mother) score (Day 7, Day 0 score 6): 5 | MADRS Concentration Difficulties improvement (Day 7): 0 | MADRS Concentration Difficulties score (Day 7): 0 | MADRS Reduced appetite improvement (Day 7): 0 | MADRS Reduced appetite score (Day 7): 0
